# Legend:
# [1] = logP determination by HPLC (reversed-phase C18), EEC Directive 79/831 Annex V.A8; type: physicochemical; conditions: HPLC reversed-phase C18, 43° C., acidic range pH 2.7
# Aedes aegypti = Aedes aegypti test (larvae); type: in vivo
# Experimental: (§1) Aedes aegypti Test Solvents: 1% of N-methylpyrrolidone (NMP) • 1% of diacetone alcohol Dye: brilliant sulphoflavin for staining the water To produce a suitable preparation of active compound, the active compound is mixed with the stated amounts of solvents and the concentrate is diluted with stained water to the desired concentration. The larvae (Aedes aegypti) are treated with an active compound preparation of the desired concentration. After the desired period of time, the activity in % is determined. 100% means that all of the larvae have been killed; 0% means that none of the larvae have been killed.
# [2] = test system: Diabrotica undecimpunctata; assay: Diabrotica undecimpunctata (DIABUN) test (eggs); type: in vivo
# Experimental: as §1, with “Diabrotica undecimpunctata (DIABUN) Solvents:” for “Aedes aegypti Test Solvents:”, “The eggs (Diabrotica undecimpunctata)” for “The larvae (Aedes aegypti)”, “all animals” for “all of the larvae”, “the animals” for “the larvae”
# [3] = test system: caterpillars of the cotton bollworm (Heliothis armigera); assay: Heliothis armigera test (leaf dip); type: in vivo
# How it was run: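 Compound was formulated in dimethylformamide with alkylaryl polyglycol ether emulsifier and diluted in emulsifier-containing water. Soya bean leaves were dipped in the preparation and populated with Heliothis armigera caterpillars while still moist. Kill (%) was scored after the desired period.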
# [4] = test system: Spodoptera frugiperda larvae; assay: Spodoptera frugiperda test (treatment by watering); type: in vivo; conditions: for Kill rate after 14d in %: 20 ppm, treatment by watering
# How it was run: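 Compound formulated in dimethylformamide with alkylaryl polyglycol ether emulsifier and diluted with water to the desired concentration. Maize plants are watered with the preparation, then infested with Spodoptera frugiperda larvae. After the set period, % larval kill is scored (100% = all killed, 0% = none).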
# [5] = test system: larvae of the mustard beetle (Phaedon cochleariae); assay: Phaedon test (sprayed Chinese cabbage discs); type: in vivo; conditions: for Kill rate after 7d in %: 100 g/ha
# How it was run: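 Compound formulated in acetone/DMF with alkylaryl polyglycol ether emulsifier, diluted in emulsifier-containing water and sprayed onto Chinese cabbage (Brassica pekinensis) leaf discs. After drying, discs infested with Phaedon cochleariae larvae; % kill scored after set time (100% = all larvae dead, 0% = none).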
# Myzus persicae = Myzus persicae test (ingestion of active compound preparation); type: in vivo
# Experimental: Myzus persicae Test Solvents: 1% of N-methylpyrrolidone (NMP) • 1% of diacetone alcohol Dye: brilliant sulphoflavin for staining the water To produce a suitable preparation of active compound, the active compound is mixed with the stated amounts of solvents and the concentrate is diluted with stained water to the desired concentration. The Myzus persicae are provided with an active compound preparation of the desired concentration for ingestion. After the desired period of time, the activity in % is determined. 100% means that all aphids have been killed; 0% means that none of the aphids have been killed.
# Heliothis virescens = Heliothis virescens test (eggs); type: in vivo
# Experimental: as §1, with “Heliothis virescens Solvents:” for “Aedes aegypti Test Solvents:”, “The eggs (Heliothis virescens)” for “The larvae (Aedes aegypti)”, “all animals” for “all of the larvae”, “the animals” for “the larvae”
# [6] = test system: caterpillars of the army worm (Spodoptera frugiperda); assay: Spodoptera frugiperda test (SPODFR spray treatment); type: in vivo; conditions: for Kill rate after 7d in %: 100 g/ha, spray treatment
# How it was run: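 Compound formulated in acetone/DMF with alkylaryl polyglycol ether emulsifier, diluted in emulsifier-containing water and sprayed on maize leaf discs; after drying, discs infested with Spodoptera frugiperda caterpillars. Mortality (%) scored after a set period, 100% meaning all caterpillars killed.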
# [7] = test system: cotton aphid (Aphis gossypii); assay: Aphis gossypii test (leaf dip); type: in vivo; conditions: for Kill rate after 6d in %: 100 ppm
# Experimental: Aphis gossypii Test Solvent: 7 parts by weight of dimethylformamide Emulsifier: 2 parts by weight of alkylaryl polyglycol ether To produce a suitable preparation of active compound, 1 part by weight of active compound is mixed with the stated amounts of solvent and emulsifier and the concentrate is diluted with emulsifier-containing water to the desired concentration. Cotton leaves (Gossypium hirsutum) which are heavily infested by the cotton aphid (Aphis gossypii) are treated by being dipped into the active compound preparation of the desired concentration. After the desired period of time, the kill in % is determined. 100% means that all aphids have been killed; 0% means that none of the aphids have been killed.
# [8] = test system: caterpillars of the diamondback moth (Plutella xylostella); assay: Plutella test (leaf dip); type: in vivo
# How it was run: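 Cabbage (Brassica oleracea) leaves dipped in compound formulated in dimethylformamide/alkylaryl polyglycol ether emulsifier diluted with emulsifier-containing water. Leaves infested with Plutella xylostella caterpillars while still moist. After a set period, kill % scored (100% = all caterpillars dead, 0% = none).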
# [9] = test system: caterpillars of the army worm (Spodoptera exigua); assay: Spodoptera exigua test (leaf dip); type: in vivo; conditions: for Kill rate after 7d in %: 4 ppm
# How it was run: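 Compound in DMF with alkylaryl polyglycol ether emulsifier, diluted in water to test concentration; cabbage leaves dipped and infested with Spodoptera exigua caterpillars while still moist. Kill (%) scored after a set period, 100% meaning all caterpillars dead.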
# [10] = test system: green peach aphid (Myzus persicae); assay: Myzus persicae test; systemic treatment; type: in vivo
# Experimental: Myzus persicae Test; Systemic Treatment Solvent: 7 parts by weight of dimethylformamide Emulsifier: 2 parts by weight of alkylaryl polyglycol ether To produce a suitable preparation of active compound, 1 part by weight of active compound is mixed with the stated amounts of solvent and emulsifier and the concentrate is diluted with water to the desired concentration. The active compound preparation is mixed with water. The stated concentration refers to the amount of active compound per volume unit of water (mg/l=ppm). The treated water is filled into vessels with a pea plant (Pisum sativum) which is then infected with the green peach aphid (Myzus persicae). After the desired period of time, the kill in % is determined. 100% means that all aphids have been killed; 0% means that none of the aphids have been killed.
# [11] = test system: Spodoptera exigua, resistant strain; assay: Spodoptera exigua test; resistant strain; type: in vivo
# How it was run: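 Cabbage leaves dipped in compound preparation (DMF solvent, alkylaryl polyglycol ether emulsifier, diluted in emulsifier-containing water) and infested with caterpillars while still moist. After the set period, kill scored in %: 100% all caterpillars dead, 0% none dead.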
# [12] = test system: green peach aphid (Myzus persicae); assay: Myzus test (MYZUPE spray treatment); type: in vivo; conditions: for Kill rate after 5d in %: 100 g/ha, spray treatment
# How it was run: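 Chinese cabbage leaf discs infested with all aphid stages sprayed with compound in acetone/DMF with alkylaryl polyglycol ether emulsifier, diluted in emulsifier-containing water to the desired concentration. After the set period, percent activity scored as aphids killed (100% = all dead, 0% = none).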
logP [1],Compound,activity in the Heliothis armigera test (in words) [3],Kill rate after 14d in % [4] [%],activity in the Phaedon test (in words) [5],Kill rate after 7d in % [5] [%],"activity in the Spodoptera frugiperda test, spray treatment (in words) [6]",Kill rate after 7d in % [6] [%],activity in the Aphis gossypii test (in words) [7],Kill rate after 6d in % [7] [%],Kill rate after 7d in % ([3]; 4 ppm) [%],activity in the Plutella test (in words) [8],activity in the Spodoptera exigua test (in words) [9],Kill rate after 7d in % [9] [%],"activity in the Myzus test, spray treatment (in words) [12]",Kill rate after 5d in % [12] [%],further results
3.09,O=C(Nc1c(Cl)cc(Cl)cc1C1=NOCCO1)c1cc(Br)nn1-c1ncccc1Cl [Example I-1-8],good activity,95,good activity,100,good activity,100,–,–,–,–,–,–,–,–,"activity in the Aedes aegypti test (in words) (Aedes aegypti): good activity; Kill rate after 2-4d in % (Aedes aegypti; 30 ppm, 2-4 d, larvae): 100%; activity in the Diabrotica undecimpunctata test (in words) [2]: good activity; Kill rate after 2-5d in % ([2]; 300 ppm, 2-5 d, eggs): 100%; Kill rate after 7d in % ([3]; 20 ppm): 100%; activity in the Spodoptera frugiperda test, watering (in words) [4]: good activity; activity in the Myzus persicae test (in words) (Myzus persicae): good activity; Kill rate after 6-7d in % (Myzus persicae; 30 ppm, 6-7 d, ingestion): 100%; activity in the Heliothis virescens test (in words) (Heliothis virescens): good activity; Kill rate after 6-7d in % (Heliothis virescens; 100 ppm, 6-7 d, eggs): 100%"
2.25,Cc1cc(Cl)cc(C2=NOCCN2)c1NC(=O)c1cc(Br)nn1-c1ncccc1Cl [Example I-1-19],good activity,95,good activity,100,good activity,100,good activity,80,100,good activity,good activity,80,good activity,90,"Kill rate after 7d in % ([8]; 0.8 ppm): 100%; activity in the Myzus persicae test, systemic treatment (in words) [10]: good activity; Kill rate after 6d in % ([10]; 20 ppm, 6 d, systemic treatment): 90%; activity in the Spodoptera exigua test, resistant strain (in words) [11]: good activity; Kill rate after 7d in % ([11]; 20 ppm, 7 d, resistant strain): 100%"
2.25,Cc1cc(Cl)cc(C2=NOCCN2)c1NC(=O)c1cc(Cl)nn1-c1ncccc1Cl [Example I-1-20],good activity,95,good activity,100,good activity,100,good activity,80,100,good activity,good activity,100,good activity,100,Kill rate after 7d in % ([8]; 4 ppm): 100%

# From patent US8062995B2, “Dioxazine-substituted arylamides” (Bayer CropScience AG, priority 2005, dated 2011)
